In patent EP2924037A1, “QUINAZOLINE DERIVATE AND USE THEREOF AS APOPTOSIS INHIBITOR” (Linx Pharmaceutical Co., Ltd., priority 2012, dated 2013):
Where two headings read alike, the source gives them in different places.

Legend:
pgk1 = target: T1, pgk1 (Mus musculus, UniProt P09411); test: Activity assay of pgk1 (GAPDH-coupled, absorbance at 340 nm); type: biochemical
T1 construct: His; made in house; host or cells: E. coli
T1 sequence (P09411 1-417): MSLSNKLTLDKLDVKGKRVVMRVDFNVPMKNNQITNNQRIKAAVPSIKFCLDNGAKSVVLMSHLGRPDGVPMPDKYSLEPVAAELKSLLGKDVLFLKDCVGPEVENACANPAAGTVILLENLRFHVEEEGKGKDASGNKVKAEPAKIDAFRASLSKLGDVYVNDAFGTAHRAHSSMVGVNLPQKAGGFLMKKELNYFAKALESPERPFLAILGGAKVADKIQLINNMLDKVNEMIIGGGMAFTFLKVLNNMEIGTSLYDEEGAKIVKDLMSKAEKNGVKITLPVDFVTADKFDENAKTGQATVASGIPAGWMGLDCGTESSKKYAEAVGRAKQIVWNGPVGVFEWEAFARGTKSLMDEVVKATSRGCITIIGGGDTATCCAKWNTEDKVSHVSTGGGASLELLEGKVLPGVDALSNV
Protocol: The recombinant mouse pgk1 protein (His-pgk1) was expressed in the E. Coli. The protein was purified by a Nickel column. The proteins were diluted to 0.15 unit /mL. Then, different concentrations of terazosin were added to determine the pgk1 activity.
According to the components of Colorimetric GAPDH Assay Kit (ScienCells), the reaction solution was prepared with solutions of GAPDH, HEPES, and MgSO4. A predetermined concentration of the compound of Formula I was added to the reaction solution (30 mM Hepes, 3 mM ATP, 0.22 mM NADH, 10 mM MgSO4, 10 mM 3-PGA, 3-4 U/ml GAPDH, pH 7.5). Absorbance was measured at 25 °C with a spectroscope (340 nm). Relative activity of pgk1 was calculated based on the changes of absorbance value within 1-10 minutes. The activity has a positive correlation with the changes of absorbance value. The absorbance of the same compound at 340 nm was subtracted in the test group.

[1] = test system: sepsis models (LPS; Cecal Ligation and Puncture); test: Effects against sepsis (LPS and CLP models), 7-day survival; type: in vivo, BALB/C mice; details: i.p. once a day for 3 days at 0.4 mg/kg; 7-day period; P < 0.05 compared to negative controls
Protocol: After 1.5 hours, compounds were injected (i.p.) at a predetermined concentration. Mouse survival was examined every 12 hours for 7 days. Statistical significance of the difference in the survival rates was analyzed.
Another model is Cecal Ligation and Puncture (CLP) model of sepsis. Mice were anesthetized. A 1.5-2.0 cm long abdominal midline incision was made and the cecum was exposed. After ligation 5 mm from the cecal tip, the cecum was punctured once with a 22-gauge needle, and some stool was squeezed out. Then the cecum was put back into the abdomen and the abdomen was closed by running suture. After 1.5 hours, compounds were injected (i.p.) at a predetermined concentration. Mouse survival was examined every 12 hours for 7 days. Statistical significance of the difference in the survival rates was analyzed.
These compounds were individually injected (i.p.) once a day for 3 days at 0.4 mg/kg.

[2] = Effect on serum glucose in mice; type: in vivo; details: Mus musculus, ip; 0.4 mg/kg i.p. once, measured 18 hours later; t-test P<0.01 for terazosin; read-out: reduction of the serum glucose level
Protocol: Mice were injected terazosin (0.4 mg/kg i.p.) once. The serum glucose level of the mice was measured 18 hours later. […] By the same method, exemplary compounds Co.1, Co.3, Co.7, Co.9, Co.13, Co.16, Co.19, Co.24, Co.27 and Co.32 as described in the present invention were all shown to be effective to reduce the serum glucose level by 20% to 50%.

cerebral thrombosis = test: Mouse model of cerebral thrombosis, infarct volume; type: in vivo; details: 0.4 mg/kg i.p.; 6 mice per condition; t-test P<0.05
Protocol: In a mouse model of cerebral thrombosis, the mouse brains were stained after death from thrombosis. […] The statistical analysis was performed based on % infarct volume = white area/total area, 6 mice were tested for each condition. t-test, P<0.05.

E. Coli O111:B4 = test: Oxford Cup test of antibiotic activity; type: cell-based; details: after 24 hrs; terazosin 0.2µg, 2µg, 200µg, 2mg; ampicillin 2mg
Protocol: The antibiotic activity of terazosin was measured by Oxford Cup test. Oxford Cups containing different concentrations of terazosin were placed in the petri dish wherein E. Coli O111:B4 was cultured on LB medium. The effects of terazosin and ampicillin on the growth of E. Coli were examined after 24 hrs.

[3] = 0.02 µg/ml, read-out: activation of pgk1 represented by fold changes
[4] = read-out: Activity* (the times of pgk1 activity induced by 0.02µg/ml of the tested compound)

With `COc1cc2nc(N3CCN(C(=O)C4CCCO4)CC3)nc(NC(C)=O)c2cc1OC` (stereo not shown) [Co.1] the fold induction at 0.02 µg/mL (pgk1; [3]) was 2.9, the fold induction at 0.02 µg/mL (pgk1; [4]) was 2.9 and the survival against sepsis [1] was “significantly increased survival against sepsis”. For the same compound, the inhibition in vivo at 0.4 mg/kg [2] was 20 to 50% and the “infarct volume (% infarct volume = white area/total area)” value (cerebral thrombosis) was “effective to reduce the infarct volume”.
`COc1cc2nc(N3CCN(C(=O)C4CCCO4)CC3)nc(NCCOCCO)c2cc1OC` (stereo not shown) [Co.2] showed a fold induction at 0.02 µg/mL (pgk1; [3]) of 2.3 and a fold induction at 0.02 µg/mL (pgk1; [4]) of 2.3.
In the case of `COc1cc2nc(N3CCN(C(=O)C4CCCO4)CC3)nc(NN)c2cc1OC` (stereo not shown) [Co.3], the fold induction at 0.02 µg/mL (pgk1; [4]) is reported as 1.9 and the inhibition in vivo at 0.4 mg/kg [2] is reported as 20 to 50%.
With `COc1cc2nc(N3CCN(C(=O)C4CCCO4)CC3)nc(NO)c2cc1OC` (stereo not shown) [Co.4] the fold induction at 0.02 µg/mL (pgk1; [4]) was 3.4, the survival against sepsis [1] was “significantly increased survival against sepsis” and the “infarct volume (% infarct volume = white area/total area)” value (cerebral thrombosis) was “effective to reduce the infarct volume”.
Compound `C=CCNc1nc(N2CCN(C(=O)C3CCCO3)CC2)nc2cc(OC)c(OC)cc12` (stereo not shown) [Co.5] has a fold induction at 0.02 µg/mL (pgk1; [4]) of 1.5.
In the case of `C#CCNc1nc(N2CCN(C(=O)C3CCCO3)CC2)nc2cc(OC)c(OC)cc12` (stereo not shown) [Co.6], the fold induction at 0.02 µg/mL (pgk1; [4]) is reported as 1.2.
For `CCCCCCNc1nc(N2CCN(C(=O)C3CCCO3)CC2)nc2cc(OC)c(OC)cc12` (stereo not shown) [Co.7], the fold induction at 0.02 µg/mL (pgk1; [4]) was 2.1, the inhibition in vivo at 0.4 mg/kg [2] was 20 to 50% and the “infarct volume (% infarct volume = white area/total area)” value (cerebral thrombosis) was “effective to reduce the infarct volume”.
In the case of `COc1cc2nc(N3CCN(C(=O)C4CCCO4)CC3)nc(NCCCCC(F)(F)F)c2cc1OC` (stereo not shown) [Co.8], the fold induction at 0.02 µg/mL (pgk1; [4]) is reported as 0.9 and the “infarct volume (% infarct volume = white area/total area)” value (cerebral thrombosis) is reported as “effective to reduce the infarct volume”.
In the case of `COc1cc2nc(N3CCN(C(=O)C4CCCO4)CC3)nc(NC3CCCCC3)c2cc1OC` (stereo not shown) [Co.9], the fold induction at 0.02 µg/mL (pgk1; [4]) is reported as 1.4, the survival against sepsis [1] is reported as “significantly increased survival against sepsis” and the inhibition in vivo at 0.4 mg/kg [2] is reported as 20 to 50%.
With `COc1cc2nc(N3CCN(C(=O)C4CCCO4)CC3)nc(N3CCCCC3)c2cc1OC` (stereo not shown) [Co.10] the fold induction at 0.02 µg/mL (pgk1; [4]) was 0.7.
`COc1cc2nc(N3CCN(C(=O)C4CCCO4)CC3)nc(N(C)CCOCCO)c2cc1OC` (stereo not shown) [Co.11] gave a fold induction at 0.02 µg/mL (pgk1; [4]) of 2.1.
In the case of `COc1cc2nc(N3CCN(C(=O)C4CCCO4)CC3)nc(Nc3ccccc3)c2cc1OC` (stereo not shown) [Co.12], the fold induction at 0.02 µg/mL (pgk1; [4]) is reported as 2.6.
In the case of `COc1cc2nc(N3CCN(C(=O)C4CCCO4)CC3)nc(NC(=O)C(F)(F)F)c2cc1OC` (stereo not shown) [Co.13], the fold induction at 0.02 µg/mL (pgk1; [4]) is reported as 1.8, the survival against sepsis [1] is reported as “significantly increased survival against sepsis” and the inhibition in vivo at 0.4 mg/kg [2] is reported as 20 to 50%. For the same compound, the “infarct volume (% infarct volume = white area/total area)” value (cerebral thrombosis) was “effective to reduce the infarct volume”.
In the case of `COc1cc2nc(N3CCN(C(=O)C4CCCO4)CC3)nc(NC(=O)c3ccccc3)c2cc1OC` (stereo not shown) [Co.14], the fold induction at 0.02 µg/mL (pgk1; [4]) is reported as 1.5 and the “infarct volume (% infarct volume = white area/total area)” value (cerebral thrombosis) is reported as “effective to reduce the infarct volume”.
For `Nc1nc(N2CCN(C(=O)C3CCCO3)CC2)nc2cc3c(cc12)OCO3` (stereo not shown) [Co.15], the fold induction at 0.02 µg/mL (pgk1; [4]) was 0.6.
In the case of `CCOCCOc1cc2nc(N3CCN(C(=O)C4CCCO4)CC3)nc(N)c2cc1OCCOCC` (stereo not shown) [Co.16], the fold induction at 0.02 µg/mL (pgk1; [4]) is reported as 1.7, the inhibition in vivo at 0.4 mg/kg [2] is reported as 20 to 50% and the “infarct volume (% infarct volume = white area/total area)” value (cerebral thrombosis) is reported as “effective to reduce the infarct volume”.
In the case of `COc1cc2c(N)nc(N3CCN(C(=O)C4CCCO4)CC3)nc2cc1OC(C)=O` (stereo not shown) [Co.17], the fold induction at 0.02 µg/mL (pgk1; [4]) is reported as 1.1.
With `COc1cc2c(N)nc(N3CCN(C(=O)C4CCCO4)CC3)nc2cc1F` (stereo not shown) [Co.18] the fold induction at 0.02 µg/mL (pgk1; [4]) was 1.3 and the survival against sepsis [1] was “significantly increased survival against sepsis”.
For `Nc1nc(N2CCN(C(=O)C3CCCO3)CC2)nc2cc(N3CCCCC3)c(C(F)(F)F)cc12` (stereo not shown) [Co.19], the fold induction at 0.02 µg/mL (pgk1; [4]) was 1.4, the inhibition in vivo at 0.4 mg/kg [2] was 20 to 50% and the “infarct volume (% infarct volume = white area/total area)” value (cerebral thrombosis) was “effective to reduce the infarct volume”.
With `Nc1nc(N2CCN(C(=O)C3CCCO3)CC2)nc2cc3cccnc3cc12` (stereo not shown) [Co.20] the fold induction at 0.02 µg/mL (pgk1; [4]) was 1.9.
In the case of `CCCc1cc2nc(N3CCN(C(=O)C4CCCO4)CC3)nc(N)c2cc1OC` (stereo not shown) [Co.22], the fold induction at 0.02 µg/mL (pgk1; [4]) is reported as 2.4.
Work on `COc1cc2c(N)nc(N3CCN(C(=O)C4CCCO4)CC3)nc2cc1NC(=O)c1ccccc1` (stereo not shown) [Co.23] yielded a fold induction at 0.02 µg/mL (pgk1; [4]) of 0.7.
`COc1cc2c(N)nc(N3CCN(C(=O)C4CCCO4)CC3)nc2cc1OC1CC=CCC1` (stereo not shown) [Co.24] showed a fold induction at 0.02 µg/mL (pgk1; [4]) of 0.4 and an inhibition in vivo at 0.4 mg/kg [2] of 20 to 50%.
Compound `CCOCCOc1c(OC)c(OC)c(OCCOCC)c2c(N)nc(N3CCN(C(=O)C4CCCO4)CC3)nc12` (stereo not shown) [Co.25] has a fold induction at 0.02 µg/mL (pgk1; [4]) of 2.7.
Work on `COc1c(OC)c(OC)c2c(N)nc(N3CCN(C(=O)C4CCCO4)CC3)nc2c1OC(C)=O` (stereo not shown) [Co.26] yielded a fold induction at 0.02 µg/mL (pgk1; [4]) of 3.2.
Compound `COc1c(OC)c(C(F)(F)F)c2c(N)nc(N3CCN(C(=O)C4CCCO4)CC3)nc2c1N1CCCCC1` (stereo not shown) [Co.27] has a fold induction at 0.02 µg/mL (pgk1; [4]) of 0.9 and an inhibition in vivo at 0.4 mg/kg [2] of 20 to 50%.
In the case of `COc1c(OC)c(OC)c2c(N)nc(N3CCN(C(=O)C4CCCO4)CC3)nc2c1F` (stereo not shown) [Co.28], the fold induction at 0.02 µg/mL (pgk1; [4]) is reported as 1.2 and the survival against sepsis [1] is reported as “significantly increased survival against sepsis”.
In the case of `COc1c(OC)c(OC)c2c(N)nc(N3CCN(C(=O)C4CCCO4)CC3)nc2c1NC(C)=O` (stereo not shown) [Co.29], the fold induction at 0.02 µg/mL (pgk1; [4]) is reported as 2.6, the survival against sepsis [1] is reported as “significantly increased survival against sepsis” and the “infarct volume (% infarct volume = white area/total area)” value (cerebral thrombosis) is reported as “effective to reduce the infarct volume”.
Work on `CCCCc1c(OC)c(OC)c(OC)c2c(N)nc(N3CCN(C(=O)C4CCCO4)CC3)nc12` (stereo not shown) [Co.30] yielded a fold induction at 0.02 µg/mL (pgk1; [4]) of 1.8.
Compound `COc1c(OC)c(OC)c2c(N)nc(N3CCN(C(=O)C4CCCO4)CC3)nc2c1NC(=O)c1ccccc1` (stereo not shown) [Co.31] has a fold induction at 0.02 µg/mL (pgk1; [4]) of 0.6.
With `COc1c(OC)c(OC)c2c(N)nc(N3CCN(C(=O)C4CCCO4)CC3)nc2c1OC1CC=CCC1` (stereo not shown) [Co.32] the fold induction at 0.02 µg/mL (pgk1; [4]) was 2.8, the inhibition in vivo at 0.4 mg/kg [2] was 20 to 50% and the “infarct volume (% infarct volume = white area/total area)” value (cerebral thrombosis) was “effective to reduce the infarct volume”.
With `CC1(C)S[C@@H]2[C@H](NC(=O)[C@H](N)c3ccccc3)C(=O)N2[C@H]1C(=O)O` [ampicillin] the “growth of E. coli (inhibition zones)” value (E. Coli O111:B4) was “shown to inhibit E. coli growth”.
